Experimental data as given in US20260250250A1, “3-(SULPHONYL OR SULFONIMIDOYL)PROP-2-EN-1-YL]-2-OXO-1,2-DIHYDROPYRIDINE-3-CARBOXAMIDE DERIVATIVES” (Flinder Therapeutics B.V., priority 2022, published 2026).

Assays:
[1] = target: T1, human E3 ubiquitin-protein ligase RNF31 (HOIP) (Homo sapiens, UniProt Q96EP0); assay: Cell-free HTRF-based HOIP inhibition assay; type: biochemical
T1 sequence (Q96EP0 695-1072 limits assumed): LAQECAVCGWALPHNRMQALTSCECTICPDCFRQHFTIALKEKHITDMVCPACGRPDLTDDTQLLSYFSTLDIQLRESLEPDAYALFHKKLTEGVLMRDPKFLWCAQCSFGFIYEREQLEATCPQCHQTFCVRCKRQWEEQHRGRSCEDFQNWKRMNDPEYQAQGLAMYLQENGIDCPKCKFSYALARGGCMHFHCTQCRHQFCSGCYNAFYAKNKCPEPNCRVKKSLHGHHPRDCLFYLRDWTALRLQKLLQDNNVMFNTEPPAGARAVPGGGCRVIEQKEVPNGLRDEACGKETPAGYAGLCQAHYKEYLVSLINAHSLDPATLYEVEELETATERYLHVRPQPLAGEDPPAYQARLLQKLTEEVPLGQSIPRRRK
Procedure, shortened: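 Recombinant human HOIP fragment (E. coli) preincubated with compounds (100-0.005 μM, 1% DMSO) and E1 for 1 h at 25° C. E2 and substrates then added; reaction 2.5 h at 25° C. HTRF read-out, excitation 337 nm, emissions 665/620 nm.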

NF-κB signaling pathway = assay: Cell-based dual luciferase NF-κB reporter assay (HEK293 cells, TNF stimulated); conditions: Homo sapiens, HEK293
Protocol: Dual-luciferase reporter assay was designed to find inhibitors of HOIP affecting NF-κB signaling pathway. The assay was performed in HEK293 cells which were transfected with plasmids coding for Firefly and NanoLuc luciferases. The NanoLuc luciferase plasmid contains NF-κB response element which determines its expression.
The assay was run following standard dual-luciferase protocols. The assay consists of a few steps: • compounds were dispensed at a concentration range: 100-0.005 μM with a final DMSO concentration of 1% of final volume (25 μL); • cells were stimulated after 30 min with 2.5 ng/mL TNF; and • after 6 h Firefly and NanoLuc luciferase activities are determined according to the procedure described by the manufacturer of Nano-Glo Dual-Luciferase Reporter Assay System.

[2] = system: bladder carcinoma RT4 cell line; assay: TNF-α-induced cytotoxicity assay (CellTiter-Glo viability); type: cell-based; conditions: Homo sapiens, RT-4, 72 h
Procedure, shortened: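 RT4 bladder carcinoma cells, 1000 per well, stimulated with 1.25 ng/mL TNFα together with compound for 72 h at 37° C., 5% CO2. Viability read by CellTiter-Glo luminescence, proportional to cellular ATP, as a measure of HOIP-dependent cytotoxicity.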

Row | IC50 [1] | IC50 (NF-κB signaling pathway) | SMILES | IC50 [2]
1 | ≤ 0.1 µM | ≤ 1 µM | O=C(NC/C=C/S(=O)(=O)c1ccc(F)cc1F)c1cc2c([nH]c1=O)CCCC2 [Example 31, N-[(2E)-3-(2,4-difluorobenzenesulfonyl)prop-2-en-1-yl]-2-oxo-1,2,5,6,7,8-hexahydroquinoline-3-carboxamide] | ≤ 1 µM
2 | ≤ 0.1 µM | ≤ 1 µM | O=C(NC/C=C/S(=O)(=O)c1ccc(Cl)cc1Cl)c1cc2c([nH]c1=O)CCCC2 [Example 32, N-[(2E)-3-(2,4-dichlorobenzenesulfonyl)prop-2-en-1-yl]-2-oxo-1,2,5,6,7,8-hexahydroquinoline-3-carboxamide] | ≤ 1 µM
3 | ≤ 0.1 µM | ≤ 1 µM | O=C(NC/C=C/S(=O)(=O)c1ccc(F)cc1Cl)c1cc2c([nH]c1=O)CCCC2 [Example 33, N-[(2E)-3-(2-chloro-4-fluorobenzenesulfonyl)prop-2-en-1-yl]-2-oxo-1,2,5,6,7,8-hexahydroquinoline-3-carboxamide] | ≤ 1 µM
4 | ≤ 1 µM | ≤ 1 µM | O=C(NC/C=C/S(=O)(=O)c1ccc(F)cc1F)c1cc2c([nH]c1=O)CCCCC2 [Example 34, N-[(2E)-3-(2,4-difluorobenzenesulfonyl)prop-2-en-1-yl]-2-oxo-1H,2H,5H,6H,7H,8H,9H-cyclohepta[b]pyridine-3-carboxamide] | ≤ 1 µM
5 | ≤ 1 µM | ≤ 1 µM | O=C(NC/C=C/S(=O)(=O)c1ccc(F)cc1)c1cc2c([nH]c1=O)CCCCC2 [Example 35, N-[(2E)-3-(4-fluorobenzenesulfonyl)prop-2-en-1-yl]-2-oxo-1H,2H,5H,6H,7H,8H,9H-cyclohepta[b]pyridine-3-carboxamide] | ≤ 10 µM
6 | ≤ 1 µM | ≤ 100 µM | O=C(NC/C=C/S(=O)(=O)c1ccc(Cl)cc1)c1cc2c([nH]c1=O)CCCCC2 [Example 36, N-[(2E)-3-(4-chlorobenzenesulfonyl)prop-2-en-1-yl]-2-oxo-1H,2H,5H,6H,7H,8H,9H-cyclohepta[b]pyridine-3-carboxamide] | ≤ 10 µM
7 | ≤ 1 µM | ≤ 1 µM | O=C(NC/C=C/S(=O)(=O)c1ccccc1)c1cc2c([nH]c1=O)CCCCC2 [Example 38, N-[(2E)-3-(benzenesulfonyl)prop-2-en-1-yl]-2-oxo-1H,2H,5H,6H,7H,8H,9H-cyclohepta[b]pyridine-3-carboxamide] | ≤ 1 µM
8 | ≤ 0.1 µM | ≤ 1 µM | O=C(NC/C=C/S(=O)(=O)c1cccc(F)c1)c1cc2c([nH]c1=O)CCCC2 [Example 39, N-[(2E)-3-(3-fluorobenzenesulfonyl)prop-2-en-1-yl]-2-oxo-1,2,5,6,7,8-hexahydroquinoline-3-carboxamide] | ≤ 1 µM
9 | ≤ 1 µM | ≤ 1 µM | COc1ccc(S(=O)(=O)/C=C/CNC(=O)c2cc3c([nH]c2=O)CCCC3)cc1 [Example 40, N-[(2E)-3-(4-methoxybenzenesulfonyl)prop-2-en-1-yl]-2-oxo-1,2,5,6,7,8-hexahydroquinoline-3-carboxamide] | ≤ 1 µM
10 | ≤ 0.1 µM | ≤ 1 µM | O=C(NC/C=C/S(=O)(=O)c1ccccc1Cl)c1cc2c([nH]c1=O)CCCC2 [Example 41, N-[(2E)-3-(2-chlorobenzenesulfonyl)prop-2-en-1-yl]-2-oxo-1,2,5,6,7,8-hexahydroquinoline-3-carboxamide] | ≤ 1 µM
11 | ≤ 1 µM | ≤ 10 µM | O=C(NC/C=C/S(=O)(=O)c1ccc(F)cc1F)c1cc2c([nH]c1=O)CCC2 [Example 42, N-[(2E)-3-(2,4-difluorobenzenesulfonyl)prop-2-en-1-yl]-2-oxo-1H,2H,5H,6H,7H-cyclopenta[b]pyridine-3-carboxamide] | ≤ 1 µM
12 | ≤ 0.1 µM | ≤ 10 µM | O=C(NC/C=C/S(=O)(=O)c1ccccc1)c1cc2c([nH]c1=O)CCC2 [Example 43, N-[(2E)-3-(benzenesulfonyl)prop-2-en-1-yl]-2-oxo-1H,2H,5H,6H,7H-cyclopenta[b]pyridine-3-carboxamide] | ≤ 10 µM
13 | ≤ 1 µM | ≤ 1 µM | O=C(NC/C=C/S(=O)(=O)c1cccs1)c1cc2c([nH]c1=O)CCCC2 [Example 44, 2-oxo-N-[(2E)-3-(thiophene-2-sulfonyl)prop-2-en-1-yl]-1,2,5,6,7,8-hexahydroquinoline-3-carboxamide] | ≤ 1 µM
14 | ≤ 1 µM | ≤ 1 µM | COc1ccc(S(=O)(=O)/C=C/CNC(=O)c2cc3c([nH]c2=O)CCCC3)cc1OC [Example 45, N-[(2E)-3-(3,4-dimethoxybenzenesulfonyl)prop-2-en-1-yl]-2-oxo-1,2,5,6,7,8-hexahydroquinoline-3-carboxamide] | ≤ 10 µM
15 | ≤ 1 µM | ≤ 1 µM | CC(C)C1CCc2[nH]c(=O)c(C(=O)NC/C=C/S(=O)(=O)c3ccccc3)cc2C1 (stereo not drawn) [Example 46, N-[(2E)-3-(benzenesulfonyl)prop-2-en-1-yl]-2-oxo-6-(propan-2-yl)-1,2,5,6,7,8-hexahydroquinoline-3-carboxamide] | ≤ 1 µM
16 | ≤ 1 µM | ≤ 10 µM | O=C(NC/C=C/S(=O)(=O)c1ccccc1)c1cc2cccnc2[nH]c1=O [Example 47, N-[(2E)-3-(benzenesulfonyl)prop-2-en-1-yl]-2-oxo-1,2-dihydro-1,8-naphthyridine-3-carboxamide] | ≤ 10 µM
17 | ≤ 1 µM | ≤ 1 µM | CC1(C)CCc2[nH]c(=O)c(C(=O)NC/C=C/S(=O)(=O)c3ccccc3)cc2C1 [Example 48, N-[(2E)-3-(benzenesulfonyl)prop-2-en-1-yl]-6,6-dimethyl-2-oxo-1,2,5,6,7,8-hexahydroquinoline-3-carboxamide] | ≤ 1 µM
18 | ≤ 1 µM | ≤ 10 µM | O=C(NC/C=C/S(=O)(=O)c1ccccc1)c1cc2c([nH]c1=O)CCC(F)(F)C2 [Example 49, N-[(2E)-3-(benzenesulfonyl)prop-2-en-1-yl]-6,6-difluoro-2-oxo-1,2,5,6,7,8-hexahydroquinoline-3-carboxamide] | ≤ 10 µM
19 | ≤ 1 µM | ≤ 1 µM | Cc1ccc(S(=O)(=O)/C=C/CNC(=O)c2cc3c([nH]c2=O)CCCC3)cc1C [Example 51, N-[(2E)-3-(3,4-dimethylbenzenesulfonyl)prop-2-en-1-yl]-2-oxo-1,2,5,6,7,8-hexahydroquinoline-3-carboxamide] | ≤ 1 µM
20 | ≤ 1 µM | ≤ 10 µM | COc1ccc(S(=N)(=O)/C=C/CNC(=O)c2cc3c([nH]c2=O)CCCC3)cc1OC (stereo not drawn) [Example 52, N-[(2E)-3-[(3,4-dimethoxyphenyl)(imino)oxo-λ^6-sulfanyl]prop-2-en-1-yl]-2-oxo-1,2,5,6,7,8-hexahydroquinoline-3-carboxamide] | ≤ 1 µM
21 | ≤ 1 µM | ≤ 1 µM | [2H]C([2H])(/C=C/S(=O)(=O)c1ccccc1)NC(=O)c1cc2c([nH]c1=O)CCCC2 [Example 53, N-[(2E)-3-(benzenesulfonyl)(1,1-^2H2)prop-2-en-1-yl]-2-oxo-1,2,5,6,7,8-hexahydroquinoline-3-carboxamide] | ≤ 1 µM
22 | ≤ 1 µM | ≤ 1 µM | CN(C)c1ccc(S(=O)(=O)/C=C/CNC(=O)c2cc3c([nH]c2=O)CCCC3)cc1 [Example 54, N-[(2E)-3-[4-(dimethylamino)benzenesulfonyl]prop-2-en-1-yl]-2-oxo-1,2,5,6,7,8-hexahydroquinoline-3-carboxamide] | ≤ 1 µM
23 | ≤ 0.1 µM | ≤ 1 µM | O=C(NC/C=C/S(=O)(=O)c1ccc(C2CC2)cc1)c1cc2c([nH]c1=O)CCCC2 [Example 55, N-[(2E)-3-(4-cyclopropylbenzenesulfonyl)prop-2-en-1-yl]-2-oxo-1,2,5,6,7,8-hexahydroquinoline-3-carboxamide] | ≤ 1 µM
24 | ≤ 0.1 µM | ≤ 0.1 µM | N#Cc1ccc(S(=O)(=O)/C=C/CNC(=O)c2cc3c([nH]c2=O)CCCC3)cc1 [Example 56, N-[(2E)-3-(4-cyanobenzenesulfonyl)prop-2-en-1-yl]-2-oxo-1,2,5,6,7,8-hexahydroquinoline-3-carboxamide] | ≤ 1 µM
25 | ≤ 0.1 µM | ≤ 1 µM | Cc1ccc(S(=N)(=O)/C=C/CNC(=O)c2cc3c([nH]c2=O)CCCC3)cc1C (stereo not drawn) [Example 58, N-[(2E)-3-[(3,4-dimethylphenyl)(imino)oxo-λ^6-sulfanyl]prop-2-en-1-yl]-2-oxo-1,2,5,6,7,8-hexahydroquinoline-3-carboxamide] | ≤ 1 µM
